Residues, ends and D or L forms follow the SMILES beside them.
Assays:
Assay in all cases: In-house protein microarrays (with or without 5 mM DTT), protein named per line
Type in all cases: binding
[1] = molecular target: T1, SH2 and PTB domains (Homo sapiens, UniProt P19174)
T1 construct: thioredoxin; made in house; host or cells: BL21(DE3)pLysS E. coli
T1 sequence (P19174 1-1290): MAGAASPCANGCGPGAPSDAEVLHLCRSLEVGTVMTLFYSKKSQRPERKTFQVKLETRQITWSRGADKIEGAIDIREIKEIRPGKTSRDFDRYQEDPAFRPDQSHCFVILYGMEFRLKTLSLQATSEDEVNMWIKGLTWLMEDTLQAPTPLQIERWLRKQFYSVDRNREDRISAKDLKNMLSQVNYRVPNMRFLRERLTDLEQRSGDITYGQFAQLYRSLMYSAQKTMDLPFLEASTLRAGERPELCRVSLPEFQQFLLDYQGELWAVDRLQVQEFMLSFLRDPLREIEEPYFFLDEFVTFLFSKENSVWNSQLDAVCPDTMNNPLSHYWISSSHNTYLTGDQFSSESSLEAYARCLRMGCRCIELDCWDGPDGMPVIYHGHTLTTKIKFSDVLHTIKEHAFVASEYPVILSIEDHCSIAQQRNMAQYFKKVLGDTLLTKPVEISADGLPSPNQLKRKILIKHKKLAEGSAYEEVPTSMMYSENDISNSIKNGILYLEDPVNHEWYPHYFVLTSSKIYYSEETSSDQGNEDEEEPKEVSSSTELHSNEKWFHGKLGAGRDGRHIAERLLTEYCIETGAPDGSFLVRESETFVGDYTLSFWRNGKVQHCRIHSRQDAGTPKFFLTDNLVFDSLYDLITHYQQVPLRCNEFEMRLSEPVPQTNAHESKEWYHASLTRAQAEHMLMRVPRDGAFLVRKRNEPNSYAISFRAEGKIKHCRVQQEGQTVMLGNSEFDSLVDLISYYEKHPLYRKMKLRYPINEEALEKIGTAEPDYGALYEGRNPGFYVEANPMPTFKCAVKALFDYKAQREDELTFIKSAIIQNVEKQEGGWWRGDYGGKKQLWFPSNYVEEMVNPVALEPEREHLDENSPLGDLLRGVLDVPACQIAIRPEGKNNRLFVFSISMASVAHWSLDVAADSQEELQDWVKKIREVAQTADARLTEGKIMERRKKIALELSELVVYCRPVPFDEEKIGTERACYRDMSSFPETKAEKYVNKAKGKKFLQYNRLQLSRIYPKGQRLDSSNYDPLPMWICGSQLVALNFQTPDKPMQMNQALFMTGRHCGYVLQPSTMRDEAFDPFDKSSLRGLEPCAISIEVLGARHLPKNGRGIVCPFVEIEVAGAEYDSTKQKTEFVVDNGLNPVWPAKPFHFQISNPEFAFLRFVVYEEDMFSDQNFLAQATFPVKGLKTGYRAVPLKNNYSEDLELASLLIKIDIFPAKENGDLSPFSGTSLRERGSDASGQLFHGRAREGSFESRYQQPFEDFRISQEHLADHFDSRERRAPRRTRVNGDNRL
Procedure, shortened: (§1)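 KD values come from rhodamine fluorescence of duplicate spots after subtraction of a thioredoxin control. Domains were printed at ~40 µM on aldehyde slides, blocked 1 h at room temperature in pH 7.8 HEPES/KCl buffer with 5 mM DTT and 1% BSA, then peptide-probed.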

[2] = molecular target: T2, SH2 and PTB domains (Homo sapiens, UniProt Q08881); details: protein ITK
T2 construct: thioredoxin; made in house; host or cells: BL21(DE3)pLysS E. coli
T2 sequence (Q08881 1-620): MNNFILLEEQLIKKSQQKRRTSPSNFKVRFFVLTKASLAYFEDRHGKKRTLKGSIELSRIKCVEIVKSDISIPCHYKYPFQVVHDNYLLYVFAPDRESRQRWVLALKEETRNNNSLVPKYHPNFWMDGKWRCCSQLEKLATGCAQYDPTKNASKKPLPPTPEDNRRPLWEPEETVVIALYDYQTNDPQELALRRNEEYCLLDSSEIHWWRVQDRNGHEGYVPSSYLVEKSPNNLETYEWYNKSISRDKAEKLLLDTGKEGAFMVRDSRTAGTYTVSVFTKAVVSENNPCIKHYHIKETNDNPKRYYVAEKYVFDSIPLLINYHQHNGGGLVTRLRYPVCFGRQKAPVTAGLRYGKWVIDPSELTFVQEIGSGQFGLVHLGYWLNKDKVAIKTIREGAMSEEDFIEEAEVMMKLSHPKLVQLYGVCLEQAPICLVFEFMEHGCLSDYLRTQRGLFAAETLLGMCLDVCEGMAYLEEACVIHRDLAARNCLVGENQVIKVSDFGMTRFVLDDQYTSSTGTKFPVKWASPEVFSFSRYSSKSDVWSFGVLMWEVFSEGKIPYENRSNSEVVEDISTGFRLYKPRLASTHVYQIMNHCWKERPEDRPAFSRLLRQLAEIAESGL
Procedure, shortened: as §1

[3] = molecular target: T3, SH2 and PTB domains (Homo sapiens, UniProt P46109); details: protein CRKL
T3 construct: thioredoxin; made in house; host or cells: BL21(DE3)pLysS E. coli
Procedure, shortened: as §1

[4] = molecular target: T4, SH2 and PTB domains (Homo sapiens, UniProt Q7M4L6); details: protein SHF
T4 construct: thioredoxin; made in house; host or cells: BL21(DE3)pLysS E. coli
Procedure, shortened: as §1

[5] = PM assay replicate # 39336, array fabrication # 39329
[6] = PM assay replicate # 39337, array fabrication # 39329
[7] = PM assay replicate # 39307, array fabrication # 39286

T3 sequence (P46109 whole entry, the tested form may be a part): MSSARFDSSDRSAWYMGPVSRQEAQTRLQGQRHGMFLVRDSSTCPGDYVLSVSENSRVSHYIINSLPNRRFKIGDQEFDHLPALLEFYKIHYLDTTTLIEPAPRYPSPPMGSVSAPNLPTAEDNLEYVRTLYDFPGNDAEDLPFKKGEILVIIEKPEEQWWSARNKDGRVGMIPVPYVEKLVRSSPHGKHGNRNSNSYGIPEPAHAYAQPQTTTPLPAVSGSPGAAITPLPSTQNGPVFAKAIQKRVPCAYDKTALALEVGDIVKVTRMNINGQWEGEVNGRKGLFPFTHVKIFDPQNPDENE
T4 sequence (Q7M4L6 whole entry, the tested form may be a part): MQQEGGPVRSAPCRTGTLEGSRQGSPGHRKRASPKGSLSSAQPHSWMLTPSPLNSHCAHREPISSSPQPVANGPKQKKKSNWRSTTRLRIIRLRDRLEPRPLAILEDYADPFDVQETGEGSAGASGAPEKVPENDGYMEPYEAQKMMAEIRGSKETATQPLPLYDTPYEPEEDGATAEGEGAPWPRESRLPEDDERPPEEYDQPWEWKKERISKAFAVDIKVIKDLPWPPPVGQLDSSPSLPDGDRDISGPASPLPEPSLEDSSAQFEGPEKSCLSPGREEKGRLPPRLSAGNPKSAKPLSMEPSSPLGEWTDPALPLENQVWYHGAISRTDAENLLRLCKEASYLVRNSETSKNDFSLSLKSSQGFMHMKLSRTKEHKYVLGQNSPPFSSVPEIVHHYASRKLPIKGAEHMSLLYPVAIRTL

## CC(C)C[C@H](NC(=O)[C@@H]1CCCN1C(=O)[C@H](C)NC(=O)[C@@H](NC(=O)[C@H](Cc1ccc(OP(=O)(O)O)cc1)NC(=O)CNC(=O)[C@H](CC(=O)O)NC(=O)[C@@H](NC(=O)[C@@H](N)CCC(=O)O)[C@@H](C)O)C(C)C)C(=O)N[C@H](C(=O)N[C@@H](CS)C(=O)N[C@@H](CO)C(=O)N[C@@H](CC(=O)O)C(=O)O)[C@@H](C)O [ErbB2 pY1127]
[1]; protein PLCG1-C, PM assay replicate # 39336, array fabrication # 39329
  Kd: 4.09 µM
[1]; protein PLCG1-C, PM assay replicate # 39337, array fabrication # 39329
  Kd: 0.11 µM
[1]; protein PLCG1-NC, PM assay replicate # 39336, array fabrication # 39329
  Kd: 8.82 µM
[1]; protein PLCG1-NC, PM assay replicate # 39337, array fabrication # 39329
  Kd: 1.92 µM
[2]; [5]
  Kd: 0.80 µM
[2]; [6]
  Kd: 2.58 µM
[3]; [5]
  Kd: 4.80 µM
[3]; [6]
  Kd: 0.64 µM

## CCN(CC)c1ccc2c(-c3ccc(C(=O)N[C@@H](CC(N)=O)C(=O)NCC(=O)N4CCC[C@H]4C(=O)N4CCC[C@H]4C(=O)N[C@@H](CCCCN)C(=O)N[C@@H](C)C(=O)N[C@@H](CCC(=O)O)C(=O)N[C@@H](CC(=O)O)C(=O)N[C@@H](CCC(=O)O)C(=O)N[C@@H](Cc4ccc(OP(=O)(O)O)cc4)C(=O)N[C@H](C(=O)N[C@@H](CC(N)=O)C(=O)N[C@@H](CCC(=O)O)C(=O)N4CCC[C@H]4C(=O)N[C@@H](CC(C)C)C(=O)N[C@@H](Cc4ccc(O)cc4)C(=O)N[C@@H](CC(C)C)C(=O)N[C@@H](CC(=O)O)C(=O)O)C(C)C)cc3C(=O)[O-])c3ccc(=[N+](CC)CC)cc-3oc2c1 [ErbB4 1202 (18-mer)] (HELM PEPTIDE1{[CCN(CC)c1ccc2c(-c3ccc(C(=O)[*:2])cc3C(=O)[O-])c3ccc(=[N+](CC)CC)cc-3oc2c1].N.G.P.P.K.A.E.D.E.[O=C([C@H](Cc1ccc(OP(=O)(O)O)cc1)N[*:1])[*:2]].V.N.E.P.L.Y.L.D}$$$$V2.0)
[4]; [6]
  Kd: 11.92 µM
[1]; protein PLCG1-C, PM assay replicate # 39307, array fabrication # 39286
  Kd: 1.26 µM
[2]; [7]
  Kd: 0.72 µM

## CC[C@H](C)[C@H](NC(=O)[C@H](CC(N)=O)NC(=O)[C@H](CC(N)=O)NC(=O)[C@H](CCCCN)NC(=O)[C@H](CC(C)C)NC(=O)[C@H](Cc1ccc(OP(=O)(O)O)cc1)NC(=O)[C@H](CCC(=O)O)NC(=O)[C@H](C)NC(=O)[C@H](CCCCN)NC(=O)CNC(=O)[C@H](CC(C)C)NC(=O)[C@@H](NC(=O)[C@H](CC(N)=O)NC(=O)[C@H](C)NC(=O)[C@@H](N)Cc1ccccc1)[C@@H](C)O)C(=O)N[C@@H](CC(C)C)C(=O)N[C@@H](CO)C(=O)N[C@@H](CC(=O)O)C(=O)O [ErbB4 pY1221 (18-mer)] (HELM PEPTIDE1{F.A.N.T.L.G.K.A.E.[O=C([C@H](Cc1ccc(OP(=O)(O)O)cc1)N[*:1])[*:2]].L.K.N.N.I.L.S.D}$$$$V2.0)
[4]; [7]
  Kd: 1.19 µM
[3]; [7]
  Kd: 0.11 µM

— article PMC3433420 (PLoS ONE, 2012)
